Results taken from BigSolDB 2.1.

Molecule `CC(=O)Nc1ccc([N+](=O)[O-])cc1` has a solubility (mole fraction) (in 1,4-dioxane, 288.15 K) of 0.00627, a solubility (mole fraction) (in 1,4-dioxane, 293.15 K) of 0.00697 and a solubility (mole fraction) (in 1,4-dioxane, 298.15 K) of 0.00787. The solubility (mole fraction) (in 1,4-dioxane, 303.15 K) was 0.00907, the solubility (mole fraction) (in 1,4-dioxane, 308.15 K) was 0.0107 and the solubility (mole fraction) (in 1,4-dioxane, 313.15 K) was 0.0127. For the same molecule, the solubility (mole fraction) (in 1,4-dioxane, 318.15 K) was 0.0151, the solubility (mole fraction) (in 1,4-dioxane, 323.15 K) was 0.0182 and the solubility (mole fraction) (in DMF, 278.15 K) was 0.102. For the same molecule, the solubility (mole fraction) (in DMF, 283.15 K) was 0.107, the solubility (mole fraction) (in DMF, 288.15 K) was 0.112 and the solubility (mole fraction) (in DMF, 293.15 K) was 0.118. The solubility (mole fraction) (in DMF, 298.15 K) was 0.126, the solubility (mole fraction) (in DMF, 303.15 K) was 0.135 and the solubility (mole fraction) (in DMF, 308.15 K) was 0.145. The solubility (mole fraction) (in DMF, 313.15 K) was 0.156, the solubility (mole fraction) (in DMF, 318.15 K) was 0.171 and the solubility (mole fraction) (in DMF, 323.15 K) was 0.187. The solubility (mole fraction) (in NMP, 278.15 K) was 0.0745, the solubility (mole fraction) (in NMP, 283.15 K) was 0.0841 and the solubility (mole fraction) (in NMP, 288.15 K) was 0.0984. The solubility (mole fraction) (in NMP, 293.15 K) was 0.111, the solubility (mole fraction) (in NMP, 298.15 K) was 0.126 and the solubility (mole fraction) (in NMP, 303.15 K) was 0.144. For the same molecule, the solubility (mole fraction) (in NMP, 308.15 K) was 0.163, the solubility (mole fraction) (in NMP, 313.15 K) was 0.184 and the solubility (mole fraction) (in NMP, 318.15 K) was 0.21. The solubility (mole fraction) (in NMP, 323.15 K) was 0.244, the solubility (mole fraction) (in acetonitrile, 278.15 K) was 0.00235 and the solubility (mole fraction) (in acetonitrile, 283.15 K) was 0.00271. For the same molecule, the solubility (mole fraction) (in acetonitrile, 288.15 K) was 0.00325, the solubility (mole fraction) (in acetonitrile, 293.15 K) was 0.00386 and the solubility (mole fraction) (in acetonitrile, 298.15 K) was 0.00456. For the same molecule, the solubility (mole fraction) (in acetonitrile, 303.15 K) was 0.00545, the solubility (mole fraction) (in acetonitrile, 308.15 K) was 0.0065 and the solubility (mole fraction) (in acetonitrile, 313.15 K) was 0.00778. The solubility (mole fraction) (in acetonitrile, 318.15 K) was 0.00923, the solubility (mole fraction) (in acetonitrile, 323.15 K) was 0.011 and the solubility (mole fraction) (in cyclohexane, 283.15 K) was 1.94e-06. For the same molecule, the solubility (mole fraction) (in cyclohexane, 288.15 K) was 2.71e-06, the solubility (mole fraction) (in cyclohexane, 293.15 K) was 3.77e-06 and the solubility (mole fraction) (in cyclohexane, 298.15 K) was 5.18e-06. For the same molecule, the solubility (mole fraction) (in cyclohexane, 303.15 K) was 6.81e-06, the solubility (mole fraction) (in cyclohexane, 308.15 K) was 8.98e-06 and the solubility (mole fraction) (in cyclohexane, 313.15 K) was 1.16e-05. For the same molecule, the solubility (mole fraction) (in cyclohexane, 318.15 K) was 1.49e-05, the solubility (mole fraction) (in cyclohexane, 323.15 K) was 1.91e-05 and the solubility (mole fraction) (in ethanol, 278.15 K) was 0.00182. The solubility (mole fraction) (in ethanol, 283.15 K) was 0.00222, the solubility (mole fraction) (in ethanol, 288.15 K) was 0.00265 and the solubility (mole fraction) (in ethanol, 293.15 K) was 0.00318. It also gave a solubility (mole fraction) (in ethanol, 298.15 K) of 0.00377, a solubility (mole fraction) (in ethanol, 303.15 K) of 0.00458 and a solubility (mole fraction) (in ethanol, 308.15 K) of 0.00542. The solubility (mole fraction) (in ethanol, 313.15 K) was 0.00641, the solubility (mole fraction) (in ethanol, 318.15 K) was 0.00772 and the solubility (mole fraction) (in ethanol, 323.15 K) was 0.00921. It also gave a solubility (mole fraction) (in ethyl acetate, 278.15 K) of 0.00357, a solubility (mole fraction) (in ethyl acetate, 283.15 K) of 0.00414 and a solubility (mole fraction) (in ethyl acetate, 288.15 K) of 0.00481. For the same molecule, the solubility (mole fraction) (in ethyl acetate, 293.15 K) was 0.00562, the solubility (mole fraction) (in ethyl acetate, 298.15 K) was 0.00682 and the solubility (mole fraction) (in ethyl acetate, 303.15 K) was 0.00824. It also gave a solubility (mole fraction) (in ethyl acetate, 308.15 K) of 0.00993, a solubility (mole fraction) (in ethyl acetate, 313.15 K) of 0.0118 and a solubility (mole fraction) (in ethyl acetate, 318.15 K) of 0.0144. For the same molecule, the solubility (mole fraction) (in ethyl acetate, 323.15 K) was 0.0171, the solubility (mole fraction) (in ethylene glycol, 278.15 K) was 0.000807 and the solubility (mole fraction) (in ethylene glycol, 283.15 K) was 0.000953. It also gave a solubility (mole fraction) (in ethylene glycol, 288.15 K) of 0.00114, a solubility (mole fraction) (in ethylene glycol, 293.15 K) of 0.00141 and a solubility (mole fraction) (in ethylene glycol, 298.15 K) of 0.00171. It also gave a solubility (mole fraction) (in ethylene glycol, 303.15 K) of 0.00208, a solubility (mole fraction) (in ethylene glycol, 308.15 K) of 0.00246 and a solubility (mole fraction) (in ethylene glycol, 313.15 K) of 0.00301. For the same molecule, the solubility (mole fraction) (in ethylene glycol, 318.15 K) was 0.00367, the solubility (mole fraction) (in ethylene glycol, 323.15 K) was 0.00451 and the solubility (mole fraction) (in isobutanol, 278.15 K) was 0.00132. It also gave a solubility (mole fraction) (in isobutanol, 283.15 K) of 0.00158, a solubility (mole fraction) (in isobutanol, 288.15 K) of 0.00193 and a solubility (mole fraction) (in isobutanol, 293.15 K) of 0.00233. The solubility (mole fraction) (in isobutanol, 298.15 K) was 0.00284, the solubility (mole fraction) (in isobutanol, 303.15 K) was 0.00335 and the solubility (mole fraction) (in isobutanol, 308.15 K) was 0.00405. For the same molecule, the solubility (mole fraction) (in isobutanol, 313.15 K) was 0.00488, the solubility (mole fraction) (in isobutanol, 318.15 K) was 0.00602 and the solubility (mole fraction) (in isobutanol, 323.15 K) was 0.00728. It also gave a solubility (mole fraction) (in isopropanol, 278.15 K) of 0.00166, a solubility (mole fraction) (in isopropanol, 283.15 K) of 0.00201 and a solubility (mole fraction) (in isopropanol, 288.15 K) of 0.00241. For the same molecule, the solubility (mole fraction) (in isopropanol, 293.15 K) was 0.00292, the solubility (mole fraction) (in isopropanol, 298.15 K) was 0.00348 and the solubility (mole fraction) (in isopropanol, 303.15 K) was 0.00436. For the same molecule, the solubility (mole fraction) (in isopropanol, 308.15 K) was 0.00515, the solubility (mole fraction) (in isopropanol, 313.15 K) was 0.0062 and the solubility (mole fraction) (in isopropanol, 318.15 K) was 0.00736. The solubility (mole fraction) (in isopropanol, 323.15 K) was 0.00868, the solubility (mole fraction) (in methanol, 278.15 K) was 0.00147 and the solubility (mole fraction) (in methanol, 283.15 K) was 0.00182. For the same molecule, the solubility (mole fraction) (in methanol, 288.15 K) was 0.00215, the solubility (mole fraction) (in methanol, 293.15 K) was 0.00261 and the solubility (mole fraction) (in methanol, 298.15 K) was 0.00312. It also gave a solubility (mole fraction) (in methanol, 303.15 K) of 0.00366, a solubility (mole fraction) (in methanol, 308.15 K) of 0.00441 and a solubility (mole fraction) (in methanol, 313.15 K) of 0.00543. For the same molecule, the solubility (mole fraction) (in methanol, 318.15 K) was 0.0065, the solubility (mole fraction) (in methanol, 323.15 K) was 0.00772 and the solubility (mole fraction) (in n-butanol, 278.15 K) was 0.00225. It also gave a solubility (mole fraction) (in n-butanol, 283.15 K) of 0.0026, a solubility (mole fraction) (in n-butanol, 288.15 K) of 0.00308 and a solubility (mole fraction) (in n-butanol, 293.15 K) of 0.0036. It also gave a solubility (mole fraction) (in n-butanol, 298.15 K) of 0.0043, a solubility (mole fraction) (in n-butanol, 303.15 K) of 0.00512 and a solubility (mole fraction) (in n-butanol, 308.15 K) of 0.0062. For the same molecule, the solubility (mole fraction) (in n-butanol, 313.15 K) was 0.0074, the solubility (mole fraction) (in n-butanol, 318.15 K) was 0.00894 and the solubility (mole fraction) (in n-butanol, 323.15 K) was 0.0106. For the same molecule, the solubility (mole fraction) (in n-heptanol, 278.15 K) was 0.00264, the solubility (mole fraction) (in n-heptanol, 283.15 K) was 0.00303 and the solubility (mole fraction) (in n-heptanol, 288.15 K) was 0.00354. For the same molecule, the solubility (mole fraction) (in n-heptanol, 293.15 K) was 0.00417, the solubility (mole fraction) (in n-heptanol, 298.15 K) was 0.00508 and the solubility (mole fraction) (in n-heptanol, 303.15 K) was 0.00621. For the same molecule, the solubility (mole fraction) (in n-heptanol, 308.15 K) was 0.00742, the solubility (mole fraction) (in n-heptanol, 313.15 K) was 0.00911 and the solubility (mole fraction) (in n-heptanol, 318.15 K) was 0.0108. The solubility (mole fraction) (in n-heptanol, 323.15 K) was 0.013, the solubility (mole fraction) (in n-propanol, 278.15 K) was 0.0021 and the solubility (mole fraction) (in n-propanol, 283.15 K) was 0.00251. It also gave a solubility (mole fraction) (in n-propanol, 288.15 K) of 0.00297, a solubility (mole fraction) (in n-propanol, 293.15 K) of 0.00352 and a solubility (mole fraction) (in n-propanol, 298.15 K) of 0.00418. For the same molecule, the solubility (mole fraction) (in n-propanol, 303.15 K) was 0.00496, the solubility (mole fraction) (in n-propanol, 308.15 K) was 0.00595 and the solubility (mole fraction) (in n-propanol, 313.15 K) was 0.00714. The solubility (mole fraction) (in n-propanol, 318.15 K) was 0.00856, the solubility (mole fraction) (in n-propanol, 323.15 K) was 0.0101 and the solubility (mole fraction) (in water, 278.15 K) was 6.37e-06. For the same molecule, the solubility (mole fraction) (in water, 283.15 K) was 7.72e-06, the solubility (mole fraction) (in water, 288.15 K) was 1.04e-05 and the solubility (mole fraction) (in water, 293.15 K) was 1.34e-05. The solubility (mole fraction) (in water, 298.15 K) was 1.68e-05, the solubility (mole fraction) (in water, 303.15 K) was 2.23e-05 and the solubility (mole fraction) (in water, 308.15 K) was 2.89e-05. It also gave a solubility (mole fraction) (in water, 313.15 K) of 3.67e-05, a solubility (mole fraction) (in water, 318.15 K) of 4.69e-05 and a solubility (mole fraction) (in water, 323.15 K) of 6.01e-05.
